Measured values as given in patent publication EP0594540B1, “Antiretroviral acyl compounds” (Novartis AG, priority 1992, dated 1994).

Assay: Blood concentration in mice after oral administration (reversed-phase HPLC)
Format: in vivo, Mäusen
Details: oral gavage
Experimental: Die zu untersuchenden Verbindungen der Formel I oder als Kontrolle die Vergleichsverbindung der Formel II werden in Dimethylsulfoxid (DMSO) in einer Konzentration von 240 mg/ml gelöst. Die resultierenden Lösungen werden mit 20% (w/v) Hydroxypropyl-β-cyclodextrin (HPβCD) verdünnt, um eine Konzentration der Testsubstanz von 12 mg/ml zu erhalten. Diese Lösung wird Mäusen durch künstliche Sonderernährung in einer Dosis von 120 mg/kg verabreicht. 30, 60, 90 und 120 min nach der Verabreichung werden die Tiere getötet und Blut entnommen. Pro Zeitpunkt werden drei bis vier Tiere untersucht. Das Blut wird heparinisiert und für die Analyse durch eine der folgenden beiden Methoden vorbereitet: Nach der ersten Methode wird Vollblut deproteinisiert durch Mischen eines Volumenteils Blut mit einem Volumenteil Acetonitril; nach Zentrifugation wird der Überstand durch Reversed-Phase-HPLC untersucht. Nach der zweiten Methode wird ein interner Standard zum heparinisierten Blut in einer Endkonzentration von 4 µM zugegeben. Das Blut wird zentrifugiert. 0,25 ml Plasma werden abgenommen und mit einem gleichen Volumen Acetonitril deproteinisiert. Nach Zentrifugation wird der Überstand unter Vakuum eingetrocknet und der Rückstand in 20 µl 3M NaCl-Lösung und 100 µl 0,05M Phthalat-Puffer mit einem pH von 3,0 suspendiert. Die Suspension wird erst mit 1 ml, dann mit 0,2 ml Diisopropylether extrahiert. […]

CC(=O)O[C@H](CN1C[C@H]2CCCC[C@H]2C[C@H]1C(=O)NC(C)(C)C)[C@H](Cc1ccccc1)NC(=O)[C@H](CC(N)=O)NC(=O)c1ccc2ccccc2n1 [N-tert.-Butyl-decahydro-2-[2(R)-acetyloxy-4-phenyl-3(S)-[[N-(2-chinolylcarbonyl)-L-asparaginyl]amino]butyl]-(4aS,8aS)-isochinolin-3(S)-carboxamid]
Konzentration der aktiven Komponente der Formel II im Blut (120 mg/kg, 30, 60, 90 and 120 min after dosing, compared with administration of the compound of formula II in unesterified form): mehr als dreimal so hoch | Absorption der Verbindung der Formel I (120 mg/kg, compared with absorption of the compound of formula II): mehr als viermal so hoch
